Measurements as given in patent US7862798B2, “Vitamin-targeted imaging agents” (Endocyte, Inc., priority 2002, dated 2011).

Columns and labels:
[1] = molecular target: T1, folate receptor (FR) on FR-positive KB cells (Homo sapiens, UniProt P15328); assay: Relative affinity assay (blocking of 3H-folic acid binding to KB cells); conditions: for IC50: 100 nM 3H-folic acid, KB cells, 15 min on ice, triplicate; for RA (relative affinity): inverse molar ratio to displace 50% of 3H-folic acid, folic acid set to 1
T1 construct: FR-positive KB cells were gently trypsinized; endogenous in cells; host or cells: KB cells
T1 sequence (P15328 25-234): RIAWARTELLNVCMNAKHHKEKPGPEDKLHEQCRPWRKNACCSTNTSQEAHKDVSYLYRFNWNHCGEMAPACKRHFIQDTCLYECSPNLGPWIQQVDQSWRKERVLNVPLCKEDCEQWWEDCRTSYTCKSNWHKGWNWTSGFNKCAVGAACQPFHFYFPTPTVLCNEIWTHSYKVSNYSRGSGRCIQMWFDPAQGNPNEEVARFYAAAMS
Experimental: The relative affinity of various folate derivatives was determined according to the method described by Westerhoff et al. (Mol. Pharm., 48: 459-471 (1995)) with slight modification. Briefly, FR-positive KB cells were gently trypsinized in 0.25% trypsin/PBS at room temperature for 3 minutes and then diluted in FFRPMI/HIFCS. Following a 5 min 800×g spin and one PBS wash, the final cell pellet was suspended in FFRPMI 1640 (no serum). […] Samples were centrifuged at 10,000×g for 5 min, cell pellets were suspended in buffer, were transferred to individual vials containing 5 mL of scintillation cocktail, and were then counted for radioactivity.
Likewise, values lower than unity reflect weaker affinity, and values higher than unity reflect stronger affinity.
Following a 15-minute incubation at 4° C., cells were rinsed free of unbound material and counted for residual cell-associated radioactivity.

[2] = molecular target: T2, folate receptor (FR) on KB cells (Homo sapiens, UniProt P15328); assay: Concentration-dependent cell uptake (Scatchard analysis); assay type: binding; conditions: 2 hours at 37° C., read-out: KD of binding (Scatchard analysis)
T2 construct: FR-positive KB cells were gently trypsinized; endogenous in cells; host or cells: KB cells
T2 sequence (P15328 25-234): as above
Experimental: KB cells were seeded in 12-well Falcon plates and allowed to form sub-confluent monolayers overnight. Following one rinse with 1 mL of fresh FERPMI/HIFCS, each well received 1 mL of FFRPMI/HIFCS containing increasing concentrations of ^99mTc-EC20. Cells were incubated for 2 hours at 37° C. and then rinsed four times with 1 mL of ice-cold PBS, pH 7.4. The monolayers were dissolved in 0.5 mL of PBS, pH 7.4 containing 1% sodium dodecyl sulfate for 15 min at room temperature and then counted for radioactivity using a Packard gamma counter. Protein content was determined as described above, and final tabulated values were expressed in terms of molecules of EC20 per cell.
The particular KB cells used were determined to bind a maximum of four million molecules of the folate radiopharmaceutical per cell.
This HPLC-purified radiolabeled material (Peak B material) was collected and then added to cultured KB cells.

[3] = system: FR-positive M109 tumors; assay: Tissue distribution, subcutaneous M109 tumors (Example 11)
Experimental: The ability of ^99mTc-EC20 to target tumors in vivo was assessed using a FR-positive M109 model.
Four to five week-old mice (Balb/c strain) were purchased from Harlan Sprague Dawley, Inc. (Indianapolis, Ind.) and were maintained on a folate-free diet for a total of three weeks prior to the experiment. Syngeneic, FR-positive M109 tumor cells (1×10^6 per animal) were inoculated in the subcutis of the right axilla two weeks prior to the experiment.
Animals received an approximate 40 μmol/kg i.v. dose of test article in 100 μL volume via a lateral tail vein during brief diethyl ether anesthesia. Four hours post-injection, animals were sacrificed by CO2 asphyxiation, and dissected. Selected tissues were removed, weighed, and counted to determine ^99mTc distribution. CPM values were decay-corrected, and results were tabulated as % injected dose per gram of wet weight tissue.

[4] = system: FR-positive KB tumors; assay: Tissue distribution, KB tumor model (Example 16, Table 5); assay type: in vivo, nude mice; conditions: about 20-fold excess of free folate
Experimental: The protocols used in this example are similar to those described in Example 11. The ability of ^99mTc-EC11 (peptide-A1), ^99mTc-EC13 (peptide-A3), and ^99mTc-EC14 (peptide-A2) to target tumors in vivo was assessed using the FR-positive KB tumor model.
(§1) FR-positive KB tumor cells (0.25×10^6 per animal) were inoculated subcutaneously in the intracapsular region. Fourteen days after tumor cell inoculation, the animals (n=4/group) were injected intravenously with ^99mTc-EC11, ^99mTc-EC13, or ^99mTc-EC14 at the doses (about 12 μg/kg) of the conjugates shown in Table 5 below. Stocks of ^99mTc-EC11, ^99mTc-EC13, and ^99mTc-EC14 solutions were prepared on the day of use as described above. About a 20-fold excess of free folate (about 200 μg/kg) was co-administered to control animals (n=4/group). […] Selected tissues were removed, weighed, and counted in an automatic gamma counter to determine ^99mTc distribution. Uptake of the radiopharmaceutical in terms of percentage injected dose of wet weight tissue (% ID/g) was calculated by reference to standards prepared from dilutions of the injected preparation.

[5] = system: FR-positive KB tumors; assay: Tissue distribution of 99mTc-EC53, KB tumors (Table 6); assay type: in vivo
Experimental: as §1
Similar results (see Table 6 below) were obtained with ^99mTc-EC53 (the all D-enantiomer of EC20) using similar protocols except that the dose of ^99mTc-EC53 was about 50 μg/kg and about a 100-fold excess of free folate or cold EC53 was used. […] The accumulation was blocked by co-administration of free folate.

[6] = system: KB tumor; conditions: reported previously; cited from earlier work
[7] = 4 hr post i.v., + Folic acid (100 equivalents)
[8] = 4 hr post intravenous injection

## Nc1nc2ncc(CNc3ccc(C(=O)N[C@H](CCC(=O)NC[C@@H]4[NH2+][Re-]56(=[O])[S]C[C@@H](C(=O)O)[N]5C(=O)[C@H](CC(=O)O)[N]6C4=O)C(=O)O)cc3)nc2c(=O)[nH]1 (single isomer, unassigned; isomer 1) [EC20:Re isomer 1]
[1]
  IC50: 83 nM
  RA (relative affinity): 1.42
[1]; listed as Re-EC20 isomer A
  RA (relative affinity): 1.42

## Nc1nc2ncc(CNc3ccc(C(=O)N[C@H](CCC(=O)NC[C@@H]4[NH2+][Re-]56(=[O])[S]C[C@@H](C(=O)O)[N]5C(=O)[C@H](CC(=O)O)[N]6C4=O)C(=O)O)cc3)nc2c(=O)[nH]1 (single isomer, unassigned; isomer 2) [EC20:Re isomer 2]
[1]
  IC50: 86 nM
  RA (relative affinity): 1.37
[1]; listed as Re-EC20 isomer B
  RA (relative affinity): 1.37

## Nc1nc2ncc(CNc3ccc(C(=O)NC(CCC(=O)NCC(N)C(=O)NC(CC(=O)O)C(=O)NC(CS)C(=O)O)C(=O)O)cc3)nc2c(=O)[nH]1 (stereo not shown) [EC20]
[2]
  Kd: ~3 nM
[1]
  IC50: 128 nM
  RA (relative affinity): 0.92

## Nc1nc2ncc(CNc3ccc(C(=O)N[C@@H](CCC(=O)N[C@H](CCC(=O)NC[C@@H]4[NH2+][99Tc-]56(=[O])[S]C[C@@H](C(=O)O)[N]5C(=O)[C@H](CC(=O)O)[N]6C4=O)C(=O)O)C(=O)O)cc3)nc2c(=O)[nH]1 [^99mTc-EC14]
[3]; [7]
  Blood: 0.19 ± 0.07 % Injected Dose per Gram Tissue
  Heart: 0.08 ± 0.01 % Injected Dose per Gram Tissue
  Intestine: 0.32 ± 0.11 % Injected Dose per Gram Tissue
  Kidney: 5.94 ± 0.52 % Injected Dose per Gram Tissue
  Liver: 1.37 ± 0.98 % Injected Dose per Gram Tissue
  Lung: 0.15 ± 0.04 % Injected Dose per Gram Tissue
  Muscle: 0.09 ± 0.11 % Injected Dose per Gram Tissue
  Spleen: 2.99 ± 1.43 % Injected Dose per Gram Tissue
  Stomach: 0.10 ± 0.03 % Injected Dose per Gram Tissue
  Tumor: 0.43 ± 0.52 % Injected Dose per Gram Tissue
  Tumor/Blood: 2.00 ± 2.00
[3]; [8]
  Blood: 0.31 ± 0.14 % Injected Dose per Gram Tissue
  Heart: 2.39 ± 0.64 % Injected Dose per Gram Tissue
  Intestine: 1.70 ± 0.55 % Injected Dose per Gram Tissue
  Kidney: 98.0 ± 40.7 % Injected Dose per Gram Tissue
  Liver: 3.44 ± 2.19 % Injected Dose per Gram Tissue
  Lung: 2.08 ± 0.40 % Injected Dose per Gram Tissue
  Muscle: 0.99 ± 0.28 % Injected Dose per Gram Tissue
  Spleen: 2.68 ± 2.49 % Injected Dose per Gram Tissue
  Stomach: 1.47 ± 0.58 % Injected Dose per Gram Tissue
  Tumor/Blood: 34.1 ± 7.41
[4]
  accumulation in FR-positive KB tumors and kidneys on co-administration of free folate: blocked

## Nc1nc2ncc(CNc3ccc(C(=O)N[C@H](CCC(=O)NC[C@H]4[NH2+][99Tc-]56(=[O])[S]C[C@H](C(=O)O)[N]5C(=O)[C@@H](CC(=O)O)[N]6C4=O)C(=O)O)cc3)nc2c(=O)[nH]1 [^99mTc-EC53]
[5]; 99mTc-EC53 alone
  Tumor/Blood, Average: 31.4
  Tumor/Kidney, Average: 0.2
  Tumor/Liver, Average: 3.4
  Tumor/Muscle, Average: 17.1
[5]; 99mTc-EC53 alone, 50.0 ug/kg
  Tumor, Average: 11.77 % ID/g
  blood, Average: 0.38 % ID/g
  heart, Average: 1.09 % ID/g
  intestine, Average: 3.53 % ID/g
  kidney, Average: 77.99 % ID/g
  liver, Average: 3.86 % ID/g
  lung, Average: 0.89 % ID/g
  muscle, Average: 0.76 % ID/g
  spleen, Average: 0.67 % ID/g
  stomach, Average: 1.04 % ID/g
[5]; about a 100-fold excess of free folate
  accumulation in FR-positive KB tumors and kidneys on co-administration of free folate: blocked
[5]; plus EC53 (cold)
  Tumor/Blood, Average: 4.5
  Tumor/Kidney, Average: 0.14
  Tumor/Liver, Average: 0.3
  Tumor/Muscle, Average: 8.5
[5]; plus Folic Acid
  Tumor/Blood, Average: 2.2
  Tumor/Kidney, Average: 0.07
  Tumor/Liver, Average: 0.1
  Tumor/Muscle, Average: 5.2

## Nc1nc2ncc(CNc3ccc(C(=O)N[C@@H](CCC(=O)NCCNC(=O)CN(CCN(CCN(CC(=O)[O-])CC(=O)[O-])CC(=O)[O-])CC(=O)[O-])C(=O)O)cc3)nc2c(=O)[nH]1.[111In] [^111In-DTPA-Folate, reference compound]
[3]; [7]
  Blood: 0.09 ± 0.04 % Injected Dose per Gram Tissue
  Heart: 0.06 ± 0.02 % Injected Dose per Gram Tissue
  Intestine: 0.82 ± 0.14 % Injected Dose per Gram Tissue
  Kidney: 3.14 ± 1.96 % Injected Dose per Gram Tissue
  Liver: 0.81 ± 0.03 % Injected Dose per Gram Tissue
  Lung: 0.09 ± 0.2 % Injected Dose per Gram Tissue
  Muscle: 0.05 ± 0.04 % Injected Dose per Gram Tissue
  Spleen: 1.46 ± 0.73 % Injected Dose per Gram Tissue
  Stomach: 0.25 ± 0.20 % Injected Dose per Gram Tissue
  Tumor: 0.46 ± 0.42 % Injected Dose per Gram Tissue
  Tumor/Blood: 5.00 ± 4.60
[3]; [8]
  Blood: 0.21 ± 0.10 % Injected Dose per Gram Tissue
  Heart: 2.57 ± 0.82 % Injected Dose per Gram Tissue
  Intestine: 1.87 ± 0.69 % Injected Dose per Gram Tissue
  Kidney: 191 ± 79.2 % Injected Dose per Gram Tissue
  Liver: 5.21 ± 2.63 % Injected Dose per Gram Tissue
  Lung: 1.72 ± 0.61 % Injected Dose per Gram Tissue
  Muscle: 1.19 ± 0.48 % Injected Dose per Gram Tissue
  Spleen: 3.30 ± 2.33 % Injected Dose per Gram Tissue
  Stomach: 1.62 ± 0.65 % Injected Dose per Gram Tissue
  Tumor/Blood: 102 ± 43.4

## ^99mTc-12-amino-3,3,9,9-tetramethyl-5-oxa-4,8 diaza-2,10-dodecanedinoe dioxime (OXA) folate conjugate
[6]
  tracer uptake in a KB tumor: ~7 % ID/g

## benzoyl-D-Glu-n-Glu-βDpr-Asp-Cys [^99mTc-EC28, reference compound]
[3]; 4 hr post i.v.
  accumulation in the kidneys and tumor: failed to appreciably accumulate in the kidneys and tumor
[3]; [8]
  Blood: 0.06 ± 0.04 % Injected Dose per Gram Tissue
  Heart: 0.03 ± 0.01 % Injected Dose per Gram Tissue
  Intestine: 0.47 ± 0.19 % Injected Dose per Gram Tissue
  Kidney: 0.62 ± 0.14 % Injected Dose per Gram Tissue
  Liver: 0.50 ± 0.26 % Injected Dose per Gram Tissue
  Lung: 0.05 ± 0.01 % Injected Dose per Gram Tissue
  Muscle: 0.02 ± 0.01 % Injected Dose per Gram Tissue
  Spleen: 0.60 ± 0.38 % Injected Dose per Gram Tissue
  Stomach: 0.21 ± 0.19 % Injected Dose per Gram Tissue
  Tumor/Blood: 2.00 ± 0.50
[3]; 4 hr post intravenous injection, M109 tumor
  Tumor: 0.11 ± 0.06 % Injected Dose per Gram Tissue
